Laboratory results taken from patent US20020010210A1, “PHARMACEUTICAL PREPARATION AND METHOD FOR TREATING CANCER” (priority 1997, published 2002).

Legend:
[1] = tested on: bovine aortic endothelial BAE-2 cells; experiment: Intracellular ascorbic acid cumulative amount in BAE-2 cells (Example 2); format: cell-based; conditions: 5 μM in culturing medium, cultured 20 hours
Method: About 6×10^5 bovine aortic endothelial BAE-2 cells (available from Hiroshima Prefecture University) were sowed on a 60 mmφ plate and cultured in a minimum essential culturing medium containing 20% dialyzed bovine fetus serum (available from Moregate) for 2 hours. After displacing with the same culturing medium containing 5 μM (in the case of magnesium ascorbic acid-2-phosphate, 50 μM) of ascorbic acid or a derivative thereof, the cells were further cultured for 20 hours.

[2] = tested on: spontaneous breast cancer rat cells (SST-2); experiment: Lung metastasis of implanted SST-2 cells in SHR rats (Example 3); format: in vivo; conditions: 35 days after implantation; for Number of Metastasis Colonies (average), Peroral Administration: 1 mg/rat perorally from day of implantation to day 34; for Number of Metastasis Colonies (average), Subcutaneous Injection: 1 mg/rat subcutaneous injection from day of implantation to day 34
Method: 1×100,000 spontaneous breast cancer rat cells (SST-2) were subcutaneously implanted into the back of a rat (SHR rat) (5 rats per group) suffering from spontaneous hypertension. After 35 days, the rats were sacrificed, and the lung weight and the number of colonies formed were measured to examine the degree of metastasis of SST-2 to the lung. The compounds shown in Tables 3 and 4 each was administered perorally or through subcutaneous injection in a dose of 1 mg/rat over the period from the day of implantation to 34 days after implantation. The number of colonies formed was compared with that in the control group not subjected to any treatment, to examine metastasis to the lung.

[3] = tested on: normal human adult mamma epidermis keratinocyte; experiment: Intracellular ascorbic acid cumulative amount in keratinocytes (Example 1); format: cell-based; conditions: addition amount 2 μM, cultured 20 hours; difference to culture without addition
Method: About 6×10^5 cells of a normal human adult mamma epidermis keratinocyte (available from Kurashiki Boseki KK) were sowed on a 60 mm plate and cultured in a culturing medium (manufactured by Krashiki Boseki KK) for the increase of serum-free epidermis keratinocyte for 2 hours. After displacing with the same culturing medium having added thereto from 2 to 50 μM of ascorbic acid or a derivative thereof, the cells were further cultured for 20 hours. The cells were collected by trypsin treatment and the number of cells was counted using a Coulter Counter Model DN (trade name, manufactured by Coulter Electronics). The cells thus collected were washed with Hank's equilibrium salt solution, pulverized in an ultrasonic homgenizer, filtered through a Mol-cut II (UFP1LCC) (trade name, produced by Nippon Milipore KK), analyzed by HPLC using Shodex ODSpak F411A column (trade name, produced by Showa Denko KK), and the amount of ascorbic acid and derivatives thereof were measured to determine the intracellular cumulative amount.
As a control, culturing was performed in the same manner as above except for not adding ascorbic acid or a derivative thereof, and the amount of intracellular ascorbic acid was quantitatively determined.

| Compound | Intracellular Cumulative Amount [1] [Pmole/cell] | Number of Metastasis Colonies (average), Peroral Administration [2] | Number of Metastasis Colonies (average), Subcutaneous Injection [2] | Intracellular Cumulative Amount [3] [Pmole/cell] |
| --- | --- | --- | --- | --- |
| O=C1O[C@H]([C@@H](O)CO)C(O)=C1OC1O[C@H](CO)[C@@H](O)[C@H](O)[C@H]1O (stereo partly drawn) [2-O-D-Glucopyranosil-L-ascorbic acid] | <0.0003 | 87.2 | 90.6 |  |
| CC(CCC(C(=O)OC1=C(O)C(=O)O[C@@H]1[C@@H]1COC(c2ccccc2)O1)C(C)CC(C)(C)C)CC(C)(C)C (some centres unmarked) [5,6-O-Benzylidene-3-O-[5,7,7-trimethyl-2-(1,3,3-timethylbutyl)]octanoylascorbic acid] | 0.0008 | 87.4 | 89.6 |  |
| CCCCC/C=C\C/C=C\C/C=C\C/C=C\CCCC(=O)OC[C@H](O)[C@H]1OC(=O)C(OP(=O)(O)O)=C1O [L-Ascorbic acid 2-phosphate-6-arachidonate] | 0.0068 | 31.4 | 1.2 |  |
| O=C1O[C@H]([C@@H](O)COC(=O)c2ccccc2)C(O)=C1OP(=O)(O)O [L-Ascorbic acid 2-phosphate-6-benzoate] | 0.0025 | 80.0 | 64.4 |  |
| CCCCCCCCCCCC(=O)OC[C@H](O)[C@H]1OC(=O)C(OP(=O)(O)O)=C1O [L-Ascorbic acid 2-phosphate-6-laurate] | 0.0042 | 48.0 | 26.8 |  |
| CCCCCCCC/C=C\CCCCCCCC(=O)OC[C@H](O)[C@H]1OC(=O)C(OP(=O)(O)O)=C1O [L-Ascorbic acid 2-phosphate-6-oleate] | 0.0055 | 29.4 | 2.8 |  |
| CCCCCCCCCCCCCCCC(=O)OC[C@H](O)[C@H]1OC(=O)C(OP(=O)(O)O)=C1O [L-Ascorbic acid 2-phosphate-6-palmitate] | 0.0072 | 34.2 | 2.4 |  |
| CCCCCCCCCCCCCCCCCC(=O)OC[C@H](O)[C@H]1OC(=O)C(OP(=O)(O)O)=C1O [L-Ascorbic acid 2-phosphate-6-stearate] | 0.0034 | 14.2 | 8.2 |  |
| O=C1O[C@H]([C@@H]2COC(c3ccccc3)O2)C(O)=C1O (stereo partly drawn) [L-Ascorbic acid-5,6-O-benzylidene] | 0.0012 | 85.8 | 84.2 |  |
| CCCCCCCCCCCCCCCC(=O)OC[C@H](O)[C@H]1OC(=O)C(O)=C1O [L-Ascorbic acid-6-palmitate] |  | 85.4 | 83.0 |  |
| O=C1O[C@H]([C@@H](O)CO)C(O)=C1O [L-Ascorbic acid] |  | 90.8 | 88.8 |  |
| O=C1O[C@H]([C@@H](O)CO)C(O)=C1OP(=O)([O-])[O-].[Mg+2] [Magnesium L-ascorbic acid-2-phosphate] |  | 89.4 | 86.8 |  |
| O=C1OC(C2COC(c3cccc([N+](=O)[O-])c3)O2)C([O-])=C1O.[Na+] [Sodium 5,6-(3-nitro)benzylidene-L-ascorbate] | 0.0007 | 88.6 | 84.2 |  |
| O=C1O[C@H]([C@@H](O)CO)C(O)=C1OS(=O)(=O)[O-].[Na+] [Sodium L-ascorbic acid-2-sulfate] |  | 86.2 | 85.4 |  |
| Magnesium L-ascorbic acid 2-phosphate-6-laurate | 0.0070 |  |  | 0.0033 |
| Sodium L-ascorbic acid 2-phosphate-6-palmitate | 0.0068 | 30.6 | 1.6 | 0.0040 |
